Assays:
[1] = Solvent solubility evaluation test (amount dissolved in 100 g of cyclohexanone); format: physicochemical
Description: <Solvent Solubility Evaluation Test>
The 4,4′-Diacetoxy-3,3′,5,5′-tetra(acetoxymethyl)biphenyl obtained in Example 1 (hereinafter referred to as “Present Compound A”) and 4,4′-di(acetoxy)biphenyl (hereinafter referred to as “Comparative Compound a”) were measured for the amounts dissolved in 100 g of cyclohexanone at 40° C. and 60° C. (hereinunder referred to as “solubility (g)”).

[2] = amount dissolved in 100 g of cyclohexanone at 40° C.
[3] = amount dissolved in 100 g of cyclohexanone at 60° C.

Compound | Solubility [1, 2] [g] | Solubility [1, 3] [g] | melting point [°C]
CC(=O)Oc1ccc(-c2ccc(OC(C)=O)cc2)cc1 [Comparative Compound a, 4,4′-di(acetoxy)biphenyl, reference compound] | 9.0 | 12.8 | –
CC(=O)OCc1cc(-c2cc(COC(C)=O)c(OC(C)=O)c(COC(C)=O)c2)cc(COC(C)=O)c1OC(C)=O [Present Compound A, 4,4′-Diacetoxy-3,3′,5,5′-tetra(acetoxymethyl)biphenyl] | 39.4 | 89.8 | 116.2
